Reference: patent US20260317374A1, “Carrier Peptide Fragment and Use Thereof” (TOAGOSEI CO., LTD., priority 2022, published 2026)
FAM = 5(6)-carboxyfluorescein

Tested on: NSC-34 cells (mouse motor neuron-like hybrid cell line)
Test: Cell membrane permeability of sample in NSC-34 cells by flow cytometry
Type: cell-based
Conditions: for median fluorescence intensity (MFI): 10 μM sample (FAM concentration 10 μM), 0.5% DMSO, 20 hours at 37° C., 5% CO2, detector FL2
Experimental: In Example 1, a construct shown in Table 1 was prepared as a sample 1. Specifically, a construct formed of a synthetic peptide with the amino acid sequence set forth in SEQ ID No.: 1, in which an α-amino group of a lysine residue of an N-terminus is acetylated, and FAM (C21H12O7: 5(6)-carboxyfluorescein, molecular weight 376.3, excitation wavelength 495 nm, fluorescence wavelength 520 nm) corresponding to fluorescent dye bonded to the C-terminus of the synthetic peptide was prepared. The construct was diluted in dimethyl sulfoxide (DMSO) to prepare a sample solution 1 with a sample concentration of 2 mM.
As the eukaryotic cells, NSC-34 cells (mouse motor neuron-like hybrid cell line) were used and the cell membrane permeability of the sample 1 was evaluated. In Example 1, the prepared sample solution 1 was used, and in Example 2, the FAM solution was used.
The NSC-34 cell was cultured in 10% fetal bovine serum (FBS)-containing Dulbecco's modified Eagle's medium (DMEM (Cat No. 044-29765, manufactured by FUJIFILM Wako Pure Chemical Corporation)), which is a culture medium.
The NSC-34 cell that adhered to a culture plate was cleaned with PBS and then, a 0.25%-trypsin/EDTA solution was added thereto, and incubation was performed for three minutes at 37° C. After the incubation, the aforementioned 10% FBS-containing DMEM was added to deactivate trypsin and then, five-minute centrifugal separation was performed at 150×g to precipitate the cells. After the supernatant generated by the centrifugal separation was removed, the 10% FBS-containing DMEM was added to the precipitate (cell pellet) to prepare a cell suspension of about 1×10^5 cells/mL. The cell suspension was added by 1 mL to a well of a commercially available six-hole (well) plate (manufactured by AGC TECHNO GLASS Co., Ltd.) so as to seed the cell (about 1×10^5 cells/well). In addition, the 2 mM sample solution 1 was diluted with the 10% FBS-containing DMEM to prepare the sample solution 1 in which the concentration of the sample 1 was 20 μM. Then, 1 mL of the 20 μM sample solution 1 was added to the well (that is, so that the concentration of the sample 1 became […] and the DMSO concentration became 0.5% in the culture solution in the well). After that, the cell was incubated for 20 hours at 37° C. under a 5% CO2 condition.
After the 20-hour incubation, the culture supernatant was removed from the well and the cells in the well were cleaned twice with 1 mL of PBS. Next, 100 μL of the 0.25% trypsin/EDTA solution was added to the well and the incubation was performed for three minutes at 37° C. After the incubation, 900 µL of the 10% FBS-containing DMEM was added to the well to deactivate the trypsin. Subsequently, the cell suspension in the well was transferred to a tube and the cells were collected. After that, pre-washing was performed additionally, so that the cells remaining in the well were collected in the tube. This tube was subjected to five-minute centrifugal separation at 4° C. under a condition of 210×g. After the centrifugal separation, the supernatant was removed and the precipitate (cell pellet) was suspended (cleaned) with 1 mL of PBS, which was followed by the centrifugal separation under the same condition as that described above. […]
Regarding the obtained cells (cell pellet), the cell membrane permeability of the sample 1 was analyzed using a flow cytometer. […]

Substance	cell membrane permeability of carrier peptide fragment (concluded from the FAM construct (Example 1 vs Example 2))	median fluorescence intensity (MFI)	histogram position (flow cytometer, FIG. 1) (Example 1 compared to Example 2 (FAM), 20 hours)	cell membrane permeability (construct vs FAM alone, FIG. 1)
SEQ ID No.: 1: carrier peptide fragment; synthetic peptide with amino acid sequence KFRAQRRW	achieves the cell membrane permeability	–	–	–
5(6)-carboxyfluorescein [Example 2, reference compound]	–	7.58	–	–
Example 1: synthetic peptide of SEQ ID No.: 1 with N-terminal lysine α-amino group acetylated and FAM bonded to the C-terminus (Ac-KFRAQRRW-{FAM})	–	15.8	shifted to the right side compared to the histogram according to Example 2	higher cell membrane permeability than FAM alone
